Assay results from PMC13128454, “Mutant p53 protein accumulation is selectively targetable by proximity-inducing drugs” (Nature Chemical Biology, 2025).
Where “and” joins values, the source holds several entries; their conditions need not be identical. Equal entries are not always repeated. Where two headings read alike, the source gives them in different places.

Assays:
Type in all cases: cell-based
[1] = tested on: Halo–p53-Y220C ΔTAD–mCherry 293T cells; assay: annexin–PI staining; conditions: for P3_avg (P3 = early apoptotic) / P5_avg (P5 = late apoptotic): Cell_Line Y220C, proportion of cells; for avgprop_P3 / avgprop_P4 / avgprop_P5 / avgprop_P2 / P2_viable / P3_AnnexinPos_PIneg / P4_PIpos_AnnexinNeg / P5_PIpos_Annexinpos / prop_P3 / prop_P4 / prop_P5 / prop_P2: Y220C; for avgprop_P3: average proportion AnnexinPos PIneg; for avgprop_P4: average proportion PIpos AnnexinNeg; for avgprop_P5: average proportion PIpos Annexinpos; for avgprop_P2: average proportion viable; for P2_viable / P3_AnnexinPos_PIneg / P4_PIpos_AnnexinNeg / P5_PIpos_Annexinpos: event count; for P2_viable / P3_AnnexinPos_PIneg / P4_PIpos_AnnexinNeg / P5_PIpos_Annexinpos / prop_P3 / prop_P4 / prop_P5 / prop_P2: single replicate; for prop_P3: proportion AnnexinPos PIneg; for prop_P4: proportion PIpos AnnexinNeg; for prop_P5: proportion PIpos Annexinpos; for prop_P2: proportion viable
Protocol: Cells were plated in six-well plates and treated with varying concentrations of compounds for 1 day. Cells were stained with annexin V–AF488 and PI following the manufacturer’s instructions (Thermo Fisher, V13241) and analyzed by flow cytometry (Beckman CytoFLEX LX), using untreated cells to establish gates.

[2] = tested on: Halo–p53-Y220C ΔTAD–mCherry 293T cells; assay: cell-cycle analysis (DNA content, DAPI flow cytometry); design: 4N / 8N / Right_of_Gate1 (replicates) / Right_of_Gate2 (replicates) / 2N: unit not given here; conditions: 1 day; for 2N / 4N / 8N / Right_of_Gate1 (replicates) / Right_of_Gate2 (replicates): Y220C
Protocol: (§1) Cells were split into a 10-cm dish at low confluency (20%) and grown overnight. Cells were synchronized using overnight treatment with palbociclib (150 nM), washed and split into a six-well plate for treatment with compound for 24 h. Cells were harvested by trypsinization, washed twice with cold 1× PBS, fixed by dropwise addition of ice-cold 70% ethanol while vortexing and incubated overnight (4 °C). Fixed samples were centrifuged at 1,000g for 5 min and 70% ethanol was removed. Cells were washed twice with 1× PBS + 1% BSA before DNA labeling with 1 µg ml^−1 DAPI for 10 min at room temperature, before being analyzed for DNA content by flow cytometry (Beckman CytoFLEX LX).

[3] = tested on: parental 293T cells; assay: as above; conditions: 1 day; for 2N / 4N / Right_of_Gate1 (replicates) / Right_of_Gate2 (replicates): WT
Protocol: as §1

[4] = tested on: p53 luciferase transcriptional reporter in Huh7 cells; assay: p53 luciferase reporter assay; conditions: for p53 luciferase reporter signal (normalized), replicates: Huh7
Protocol: (§2) Huh7 and MFE319 cell lines stably expressing a p53 reporter (Addgene, 90363)[59] were generated. Cells were plated in 384-well plates (1,500 cells per well) and treated with varying concentrations of compound. Then, 16 h after treatment, firefly luciferase substrate was added to the cells and luminescence was monitored using an EnVision 2105 multimode plate reader.

[5] = tested on: p53 luciferase transcriptional reporter in MFE319 cells; assay: p53 luciferase reporter assay; conditions: for p53 luciferase reporter signal (normalized), replicates: MFE319
Protocol: as §2

[6] = viability with doxycycline-inducible construct; conditions: human, dox 0, read-out: mean_norm (normalized viability)
Protocol: (§3) Cells were plated in 384-well plates (typically 1,500 cells per well) with varying concentrations of compounds, with a total volume of 50 μl per well. CTG reagent was added (25 μl) to the solutions, mixed and read out using an EnVision 2105 multimode plate reader.

[7] = tested on: 293T cells expressing a dox inducible Halo–p53-Y220C ΔTAD–mCherry; assay: viability with doxycycline-inducible construct
Protocol: as §3

[8] = Conc 0.38 (unit not given; p53-01 in μM, BI2536 in nM)
[9] = Conc 0.75 (unit not given; p53-01 in μM, BI2536 in nM)
[10] = Conc 1.50 (unit not given; p53-01 in μM, BI2536 in nM)

SMILES: CC[C@@H]1C(=O)N(C)c2cnc(Nc3ccc(C(=O)NCCOCCOCCOCCOCCC(=O)N4CCC(Nc5cccc6c5cc(C#CCNc5ccc(S(C)(=O)=O)cc5OC)n6CC(F)(F)F)CC4)cc3OC)nc2N1C1CCCC1 [p53-01, PMV6-PEG4-BI2536]
- P3_avg (P3 = early apoptotic) ([1]; Concentration 0.75): 0.07971
- P5_avg (P5 = late apoptotic) ([1]; Concentration 0.75): 0.02225
- P3_avg (P3 = early apoptotic) ([1]; Concentration 1.5): 0.2575
- P5_avg (P5 = late apoptotic) ([1]; Concentration 1.5): 0.07698
- avgprop_P3 ([1]; Concentration 0.75): 0.07971
- avgprop_P4 ([1]; Concentration 0.75): 0.05038
- avgprop_P5 ([1]; Concentration 0.75): 0.02225
- avgprop_P2 ([1]; Concentration 0.75): 0.8477
- P2_viable ([1]; Concentration 0.75): 1654 and 1707 and 1670
- P3_AnnexinPos_PIneg ([1]; Concentration 0.75): 165 and 158 and 150
- P4_PIpos_AnnexinNeg ([1]; Concentration 0.75): 95 and 98 and 106
- P5_PIpos_Annexinpos ([1]; Concentration 0.75): 45 and 43 and 44
- prop_P3 ([1]; Concentration 0.75): 0.08423 and 0.07876 and 0.07614
- prop_P4 ([1]; Concentration 0.75): 0.04849 and 0.04885 and 0.05381
- prop_P5 ([1]; Concentration 0.75): 0.02297 and 0.02144 and 0.02234
- prop_P2 ([1]; Concentration 0.75): 0.8443 and 0.8509 and 0.8477
- avgprop_P3 ([1]; Concentration 1.5): 0.2575
- avgprop_P4 ([1]; Concentration 1.5): 0.06957
- avgprop_P5 ([1]; Concentration 1.5): 0.07698
- avgprop_P2 ([1]; Concentration 1.5): 0.5959
- P2_viable ([1]; Concentration 1.5): 912 and 887 and 871
- P3_AnnexinPos_PIneg ([1]; Concentration 1.5): 381 and 378 and 395
- P4_PIpos_AnnexinNeg ([1]; Concentration 1.5): 104 and 92 and 116
- P5_PIpos_Annexinpos ([1]; Concentration 1.5): 109 and 111 and 125
- prop_P3 ([1]; Concentration 1.5): 0.253 and 0.2575 and 0.2621
- prop_P4 ([1]; Concentration 1.5): 0.06906 and 0.06267 and 0.07697
- prop_P5 ([1]; Concentration 1.5): 0.07238 and 0.07561 and 0.08295
- prop_P2 ([1]; Concentration 1.5): 0.6056 and 0.6042 and 0.578
- DNA content ([2]; 0.75 μM, synchronized cells): accumulation of Halo–p53-Y220C ΔTAD–mCherry 293T cells with 4 N DNA content
- cells with genome doubling (8 N DNA content) ([2]; 1.5 μM): ~ 60%
- 2N [2, 8]: 58.97
- 4N [2, 8]: 39.03
- 8N [2, 8]: 2.00
- Right_of_Gate1 (replicates) [2, 8]: 41.03 and 37.34 and 37.12
- Right_of_Gate2 (replicates) [2, 8]: 2.00 and 2.08 and 2.06
- 2N [2, 9]: 39.09
- 4N [2, 9]: 57.44
- 8N [2, 9]: 3.47
- Right_of_Gate1 (replicates) [2, 9]: 60.91 and 56.52 and 59.94
- Right_of_Gate2 (replicates) [2, 9]: 3.47 and 3.35 and 3.58
- 2N [2, 10]: 1.94
- 4N [2, 10]: 38.53
- 8N [2, 10]: 59.53
- Right_of_Gate1 (replicates) [2, 10]: 98.06 (2×) and 98.33
- Right_of_Gate2 (replicates) [2, 10]: 59.53 and 59.10 and 58.35
- DNA content ([3]; 0.75 μM, synchronized cells): unaffected
- 2N [3, 8]: 59.15
- 4N [3, 8]: 37.20
- Right_of_Gate1 (replicates) [3, 8]: 40.85 and 40.98 and 41.52
- Right_of_Gate2 (replicates) [3, 8]: 3.65 and 3.77 and 3.58
- 2N [3, 9]: 59.00
- 4N [3, 9]: 37.55
- Right_of_Gate1 (replicates) [3, 9]: 41.00 and 43.44 and 43.05
- Right_of_Gate2 (replicates) [3, 9]: 3.45 and 3.41 and 3.53
- 2N [3, 10]: 35.77
- 4N [3, 10]: 52.80
- Right_of_Gate1 (replicates) [3, 10]: 64.23 and 64.42 and 63.80
- Right_of_Gate2 (replicates) [3, 10]: 11.43 and 12.05 and 12.32
- induction of p53 reporter ([4]; 16 h, PMV6 at doses of 1.25–10 μM): no such effect
- p53 luciferase reporter signal (normalized), replicates ([4]; log Concentration (pM) 4.59176): 0.9363 (2×) and 1.029 and 0.989 (2×) and 0.8835
- p53 luciferase reporter signal (normalized), replicates ([4]; log Concentration (pM) 4.89279): 1.081 and 0.9758 and 1.0022 and 1.095 and 1.147 and 0.9363
- p53 luciferase reporter signal (normalized), replicates ([4]; log Concentration (pM) 5.19382): 0.8967 and 0.9231 and 0.9363 and 0.9758 and 1.095 and 1.081
- p53 luciferase reporter signal (normalized), replicates ([4]; log Concentration (pM) 5.49485): 1.015 and 0.9363 and 1.029 and 1.0022 and 1.108 and 1.095
- p53 luciferase reporter signal (normalized), replicates ([4]; log Concentration (pM) 5.79588): 1.055 (2×) and 1.095 and 0.9495 and 0.9231 (2×)
- p53 luciferase reporter signal (normalized), replicates ([4]; log Concentration (pM) 6.09691): 0.9099 and 0.9626 and 0.9231 and 1.0022 and 0.9758 and 0.8835
- p53 luciferase reporter signal (normalized), replicates ([4]; log Concentration (pM) 6.39794): 0.9495 and 1.029 and 0.9758 and 1.0022 and 1.015 and 1.042
- p53 luciferase reporter signal (normalized), replicates ([4]; log Concentration (pM) 6.69897): 0.9363 and 0.9231 and 1.042 and 1.095 and 1.068 and 0.8835
- p53 luciferase reporter signal (normalized), replicates ([4]; log Concentration (pM) 7): 0.9363 and 1.0022 (3×) and 1.015 and 0.9758
- induction of p53 reporter ([5]; 16 h): no induction of luciferase activity
- p53 luciferase reporter signal (normalized), replicates ([5]; log Concentration (pM) 4.59176): 0.9836 and 1.068 and 1.04 and 1.096 and 1.012 and 0.9977
- p53 luciferase reporter signal (normalized), replicates ([5]; log Concentration (pM) 4.89279): 1.026 and 1.11 and 0.9977 and 0.9555 and 1.04 and 1.096
- p53 luciferase reporter signal (normalized), replicates ([5]; log Concentration (pM) 5.19382): 0.9836 and 1.11 and 1.04 and 1.082 (2×) and 1.096
- p53 luciferase reporter signal (normalized), replicates ([5]; log Concentration (pM) 5.49485): 0.9696 and 0.9977 and 1.012 (2×) and 1.082 and 1.04
- p53 luciferase reporter signal (normalized), replicates ([5]; log Concentration (pM) 5.79588): 0.9696 and 1.096 (3×) and 1.068 and 0.9274
- p53 luciferase reporter signal (normalized), replicates ([5]; log Concentration (pM) 6.09691): 1.152 and 1.068 and 1.012 (2×) and 1.124 and 1.04
- p53 luciferase reporter signal (normalized), replicates ([5]; log Concentration (pM) 6.39794): 0.9977 (2×) and 1.068 and 1.096 and 1.012 and 0.9836
- p53 luciferase reporter signal (normalized), replicates ([5]; log Concentration (pM) 6.69897): 1.012 (4×) and 0.9977 and 1.04
- p53 luciferase reporter signal (normalized), replicates ([5]; log Concentration (pM) 7): 1.054 and 0.9836 (2×) and 1.082 (2×) and 0.8431
- viability ([6]; Concentration 156.25): 99.3%
- viability ([6]; Concentration 312.5): 95.6%
- viability ([6]; Concentration 625): 95.7%
- viability ([6]; Concentration 1250): 95.8%
- viability ([6]; Concentration 2500): 77.5%
- viability ([6]; Concentration 5000): 60.1%
- change of potency upon doxycycline induction ([7]; dox 0, 100, 1000 ng/mL, 4 days): approximately twofold
- mean_norm (normalized viability) ([7]; dox 0, Concentration 39.0625): 0.9911
- mean_norm (normalized viability) ([7]; dox 0, Concentration 78.125): 0.9922
- mean_norm (normalized viability) ([7]; dox 0, Concentration 10000): 0.4681
- mean_norm (normalized viability) ([7]; dox 100, Concentration 39.0625): 0.9915
- mean_norm (normalized viability) ([7]; dox 100, Concentration 78.125): 1.002
- mean_norm (normalized viability) ([7]; dox 100, Concentration 156.25): 0.9543
- mean_norm (normalized viability) ([7]; dox 100, Concentration 312.5): 0.9412
- mean_norm (normalized viability) ([7]; dox 100, Concentration 625): 0.8872
- mean_norm (normalized viability) ([7]; dox 100, Concentration 1250): 0.7055
- mean_norm (normalized viability) ([7]; dox 100, Concentration 2500): 0.6021
- mean_norm (normalized viability) ([7]; dox 100, Concentration 5000): 0.3858
- mean_norm (normalized viability) ([7]; dox 100, Concentration 10000): 0.3055
- mean_norm (normalized viability) ([7]; dox 1000, Concentration 39.0625): 0.9926
- mean_norm (normalized viability) ([7]; dox 1000, Concentration 78.125): 1.004
- mean_norm (normalized viability) ([7]; dox 1000, Concentration 156.25): 1.0052
- mean_norm (normalized viability) ([7]; dox 1000, Concentration 312.5): 0.8955
- mean_norm (normalized viability) ([7]; dox 1000, Concentration 625): 0.8604
- mean_norm (normalized viability) ([7]; dox 1000, Concentration 1250): 0.7628
- mean_norm (normalized viability) ([7]; dox 1000, Concentration 2500): 0.5571
- mean_norm (normalized viability) ([7]; dox 1000, Concentration 5000): 0.3298
- mean_norm (normalized viability) ([7]; dox 1000, Concentration 10000): 0.194
